This is an account of results in patent US20080241077A1, “BENZOYLGUANIDINE SALT AND HYDRATES THEREOF” (priority 2001, published 2008).

Format in all cases: physicochemical
A short description of series [1]: Hygroscopicity of the active substance.
Series [2] in a line: Solubility in physiologically acceptable solvents.
Series [3] is described as follows: Stability of the active substance.

Counter-ions that a name gives are not always drawn.

With `NC(N)=NC(=O)c1ccc(N2CCN(C(=O)c3ccc[nH]3)CC2)c(C(F)(F)F)c1` [formula 1, 4-[4-(2-pyrrolylcarbonyl)-1-piperazinyl]-3-trifluoromethylbenzoylguanidine hydrochloride], the hygroscopicity entry in series [1] is “not hygroscopic”. Moreover, in series [2], the solubility entry is “dissolves readily”. Also, the stability entry in series [3] was “high degree of stability”.
